Results from ChEMBL document CHEMBL3508693 (2016).

Key:
[1] = Excretion (0-96h) of 14C-radioactivity in faeces following single oral dose of 300 mg [14C]SPP100 studied in healthy men; assay type: ADME, organism-based, Feces; conditions: human, in vivo, at 300 mg
[2] = Mean excretion of radioactivity (24-48h) in urine and faeces following single oral dose of 100 mg.Kg-1 [14C] aliskiren hemifumarate in rat; assay type: ADME, organism-based, Albino HAN:WIST, Urine/Feces; conditions: in vivo
[3] = Biliary elimination of aliskiren following single intravenous dose of [14C] aliskiren hemifumarate at 10 mg.Kg-1 level in mouse; assay type: ADME, organism-based, TgRasH2, Bile; conditions: in vivo
[4] = Mean excretion of radioactivity (72-96h) in urine and faeces following single oral dose of 100 mg.Kg-1 [14C] aliskiren hemifumarate in rat; assay type: ADME, organism-based, Albino HAN:WIST, Urine/Feces; conditions: in vivo
[5] = Cmax (0-96h) of total radioactivity following oral administration of [14C] aliskiren hemifumarate at 100 mg.Kg-1 level in rat; assay type: ADME, organism-based, Albino HAN:WIST, Plasma; conditions: in vivo
[6] = % of radioactivity (48h) recovered in bile of receiver rat following duodenal infusion of radioactivity through bile from donor rat treated with single intravenous administration of 10 mg.Kg-1 [14C] aliskiren hemifumarate; assay type: ADME, organism-based, HAN:WIST(SPF); conditions: in vivo
[7] = Cmax (0-168h) of total radioactivity following single oral administration of [14C] aliskiren hemifumarate at 3 mg.Kg-1 level in marmoset; assay type: ADME, organism-based, Callithrix jacchus, Plasma; conditions: in vivo
[8] = % of radioactivity (48h) recovered in gastrointestinal tract of receiver rat following duodenal infusion of radioactivity through bile from donor rat treated with single intravenous administration of 10 mg.Kg-1 [14C] aliskiren hemifumarate; assay type: ADME, organism-based, HAN:WIST(SPF); conditions: in vivo
[9] = Excretion of radioactivity (48-72h) in faeces following single intravenous dose of 10 mg.Kg-1 [14C] aliskiren hemifumarate in mouse; assay type: ADME, organism-based, TgRasH2, Feces; conditions: in vivo
[10] = Elimination (0-96h) of radioactivity via biliary route following intravenous administration of [14C] aliskiren hemifumarate at 10 mg.Kg-1 level in rat; assay type: ADME, organism-based, Albino HAN:WIST, Bile; conditions: in vivo
[11] = Excretion of radioactivity (0-72h) in urine following single oral dose of 500 mg.Kg-1 [14C] aliskiren hemifumarate in mouse; assay type: ADME, organism-based, TgRasH2; conditions: in vivo
[12] = Mean excretion of radioactivity (0-96h) in urine and faeces following single oral dose of 100 mg.Kg-1 [14C] aliskiren hemifumarate in rat; assay type: ADME, organism-based, Albino HAN:WIST, Urine/Feces; conditions: in vivo
[13] = Excretion (0-72h) of aliskiren in faeces following oral administration of [14C] aliskiren hemifumarate at 3 mg.Kg-1 level in marmoset; assay type: ADME, organism-based, Callithrix jacchus, Feces; conditions: in vivo
[14] = Excretion (0-168h) of aliskiren in urine following intravenous administration of [14C] aliskiren hemifumarate at 1 mg.Kg-1 level in marmoset; assay type: ADME, organism-based, Callithrix jacchus; conditions: in vivo
CYP2A6 = biological target: T1, CYP2A6 (Homo sapiens, UniProt P11509); assay: Inhibitory activity of 20 uM SPP100 on 37 Pmoles of cDNA-derived CYP2A6 enzyme in microsome prepared from human lymphoblastoid cell line; assay type: ADME, microsomes; parameters: conc 20 uM, interact cpd conc 3 uM; conditions: probe coumarine
T1 sequence (P11509 whole entry): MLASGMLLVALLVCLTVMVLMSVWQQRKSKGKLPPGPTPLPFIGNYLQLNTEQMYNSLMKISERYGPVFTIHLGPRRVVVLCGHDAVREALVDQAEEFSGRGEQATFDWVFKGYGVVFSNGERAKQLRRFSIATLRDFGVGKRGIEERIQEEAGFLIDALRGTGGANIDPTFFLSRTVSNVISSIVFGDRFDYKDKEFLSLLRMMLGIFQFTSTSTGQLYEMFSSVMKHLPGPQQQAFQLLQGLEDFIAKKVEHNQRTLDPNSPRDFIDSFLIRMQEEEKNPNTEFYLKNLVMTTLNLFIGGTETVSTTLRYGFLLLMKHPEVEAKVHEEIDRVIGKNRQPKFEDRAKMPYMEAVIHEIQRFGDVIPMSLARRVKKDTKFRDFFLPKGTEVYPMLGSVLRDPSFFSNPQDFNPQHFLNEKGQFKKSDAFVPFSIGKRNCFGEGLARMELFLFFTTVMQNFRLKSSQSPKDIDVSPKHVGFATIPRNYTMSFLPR

[15] = Cmaxspec of aliskiren hemifumarate following 2 week oral dosing of aliskiren hemifumarate at 50 mg.Kg-1 level studied on day 14 in female Callithrix jacchus; assay type: ADME, organism-based, Plasma; conditions: marmoset, in vivo, 336 h
[16] = Effect of 2 week oral dosing of aliskiren hemifumarate at 50 mg.Kg-1 level on blood urea nitrogen level in male Callithrix jacchus; assay type: toxicity, organism-based, Plasma; conditions: marmoset, 336 h
[17] = AUC(0-24h) of aliskiren hemifumarate following 2 week oral dosing of aliskiren hemifumarate at 10 mg.Kg-1 level studied on […] in male Callithrix jacchus; assay type: ADME, organism-based; conditions: marmoset, plasma
[18] = Effect of 2 week oral dosing of aliskiren hemifumarate at 10 mg.Kg-1 level on blood urea nitrogen level in female Callithrix jacchus; assay type: toxicity, organism-based, Plasma; conditions: marmoset, 336 h
[19] = Effect of 2 week oral dosing of aliskiren hemifumarate at 100 mg.Kg-1 level on plasma creatinine level in male Callithrix jacchus; assay type: toxicity, organism-based; conditions: marmoset, 336 h
[20] = Tmax of aliskiren hemifumarate following 8 day once-daily dosing of SPP100B oral solution at 40 mg level studied on day 8 in men; assay type: ADME, organism-based; conditions: male, human, plasma
[21] = Tmax of aliskiren hemifumarate following 2 week oral dosing of aliskiren hemifumarate at 50 mg.Kg-1 level studied on day 14 in female Callithrix jacchus; assay type: ADME, organism-based; conditions: marmoset, plasma
[22] = AUC (0-24h) of aliskiren hemifumarate following 4 week oral dietary dosing of aliskiren hemifumarate at 1000 mg.Kg-1 level in male mouse; assay type: ADME, organism-based; conditions: CB6F1-TGrasH2, mouse, plasma
[23] = Bioavailability (0-96h) of unlabeled aliskiren hemifumarate following oral administration of aliskiren hemifumarate at 100 mg.Kg-1 level in rat; assay type: ADME, organism-based; conditions: Albino HAN:WIST, plasma
[24] = Tmax of aliskiren hemifumarate following single dosing of SPP100B oral solution at 160 mg level studied on day 1 in men; assay type: ADME, organism-based; conditions: male, human, plasma
[25] = AUC of aliskiren hemifumarate following 8 day once-daily dosing of SPP100B oral solution at 640 mg level studied on day 8 in men; assay type: ADME, organism-based; conditions: male, human, plasma
[26] = t1/2 of aliskiren hemifumarate following 2 week oral dosing of aliskiren hemifumarate at 10 mg.Kg-1 level studied on […] in male Callithrix jacchus; assay type: ADME, organism-based; conditions: marmoset, plasma
[27] = AUC(0-24h) of aliskiren hemifumarate following 2 week oral dosing of aliskiren hemifumarate at 50 mg.Kg-1 level studied on day 1 in male Callithrix jacchus; assay type: ADME, organism-based; conditions: marmoset, plasma
[28] = AUC(0-24h) of aliskiren hemifumarate following 2 week oral dosing of aliskiren hemifumarate at 10 mg.Kg-1 level studied on day 1 in female Callithrix jacchus; assay type: ADME, organism-based; conditions: marmoset, plasma
[29] = Tmax of unlabeled aliskiren hemifumarate following single oral dose of aliskiren hemifumarate at 500 mg.Kg-1 level in mouse; assay type: ADME, organism-based; conditions: TgRasH2, mouse, plasma
[30] = Cmax of aliskiren hemifumarate following single dosing of SPP100B oral solution at 160 mg level studied on day 1 in men; assay type: ADME, organism-based; conditions: male, human, plasma
[31] = Cmax of aliskiren hemifumarate following 8 day once-daily dosing of SPP100B oral solution at 80 mg level studied on day 8 in men; assay type: ADME, organism-based; conditions: male, human, plasma
[32] = AUCspec of aliskiren hemifumarate following 2 week oral dosing of aliskiren hemifumarate at 100 mg.Kg-1 level studied on day 1 in female Callithrix jacchus; assay type: ADME, organism-based, Plasma; conditions: marmoset, in vivo, 336 h
[33] = Tmax of unlabeled aliskiren hemifumarate following single intravenous dose of aliskiren hemifumarate at 10 mg.Kg-1 level in mouse; assay type: ADME, organism-based; conditions: TgRasH2, mouse, plasma

Structure (SMILES): COCCCOc1cc(C[C@@H](C[C@H](N)[C@@H](O)C[C@H](C(=O)NCC([14CH3])([14CH3])C(N)=O)C(C)C)C(C)C)ccc1OC.O=C(O)/C=C/C(=O)O
- Radiolabel recovery [1]: 88.17%
- Radiolabel recovery [2]: 40.2%
- Radiolabel recovery [3]: OUTCOME = Observed, VALUE = Elimination of aliskiren occurred mainly via the biliary or faecal route
- Radiolabel recovery [4]: 2.54%
- Cmax [5]: 416 nM
- Cmax ([5]; iv, 10 mg/kg): 21200 nM
- Radiolabel recovery [6]: 2.2%
- Cmax [7]: 359 nM
- Radiolabel recovery [8]: 59.8%
- Radiolabel recovery [9]: 0.74%
- Radiolabel recovery [10]: OUTCOME = Observed/Elimination of radioactivity was mainly via biliary route
- Radiolabel recovery [11]: 1.84%
- Radiolabel recovery [12]: 95.1%

Structure (SMILES): COCCCOc1cc(C[C@@H](C[C@H](N)[C@@H](O)C[C@H](C(=O)NCC(C)(C)C(N)=O)C(C)C)C(C)C)ccc1OC
- Compound recovery [13]: 78%
- Compound recovery [14]: 3%
- inhibition at 20 µM (CYP2A6): 2.6%

Structure (SMILES): COCCCOc1cc(C[C@@H](C[C@H](N)[C@@H](O)C[C@H](C(=O)NCC(C)(C)C(N)=O)C(C)C)C(C)C)ccc1OC.COCCCOc1cc(C[C@@H](C[C@H](N)[C@@H](O)C[C@H](C(=O)NCC(C)(C)C(N)=O)C(C)C)C(C)C)ccc1OC.O=C(O)/C=C/C(=O)O [ALISKIREN FUMARATE]
- Cmax normalised [15]: 0.202 (ug/ml)/(mg/kg)
- BUN_CHANGE_BY [16]: 105%
- AUC at 24 h [17]: 33900 ng·h/mL
- BUN_CHANGE_BY [18]: 69%
- CREAT_CHANGE_BY [19]: 130%
- Tmax [20]: 2.1 h
- Tmax [21]: 1 h
- AUC(0-t) at 24 h [22]: 4820 ng·h/mL
- bioavailability [23]: 2.4%
- Tmax [24]: 2.7 h
- AUC at 192 h [25]: 2970 ng·h/mL
- half-life [26]: 5.63 h
- AUC(0-t) at 24 h [27]: 58100 ng·h/mL
- AUC(0-t) at 24 h [28]: 21300 ng·h/mL
- Tmax [29]: 1 h
- Cmax [30]: 21.5 ng/mL
- Cmax [31]: 12.7 ng/mL
- AUC normalised [32]: 0.84 ((ug.h.ml-1)/(mg/kg)
- Tmax [33]: 4.98 min
